# What was measured:
# [1] = Half-life in human liver microsomes (HLM); assay type: in vitro ADME; settings: pH 7.4, 1 μM compound, 0.78 mg/mL HLM, NADPH, 37° C.
# Description: Test compounds (1 μM) are incubated with 3.3 mM MgCl2 and 0.78 mg/mL HLM (HL101) in 100 mM potassium phosphate buffer (pH 7.4) at 37° C. on the 96-deep well plate. The reaction mixture is split into two groups, a non-P450 and a P450 group. NADPH is only added to the reaction mixture of the P450 group. An aliquot of samples of P450 group is collected at 0, 10, 30, and 60 min time point, where 0 min time point indicated the time when NADPH is added into the reaction mixture of P450 group. An aliquot of samples of non-P450 group is collected at −10 and 65 min time point. Collected aliquots are extracted with acetonitrile solution containing an internal standard. The precipitated protein is spun down in centrifuge (2000 rpm, 15 min). The compound concentration in supernatant is measured by LC/MS/MS system.
# The half-life value is obtained by plotting the natural logarithm of the peak area ratio of compounds/internal standard versus time. The slope of the line of best fit through the points yields the rate of metabolism (k).
# [2] = molecular target: T1, P2X7 receptor (Homo sapiens, UniProt Q99572); assay: IL-1β release assay in differentiated THP-1 cells stimulated with BzATP (Example 9); assay type: cell-based; settings: for inhibition at 0.3 µM: 0.3 μM concentration, read-out: IL-1β % Inhib. @ 0.3 or 0.1 μM; for IC50: four parameter logistic fit, read-out: IL-1β IC50
# T1 construct: endogenous in cells; host or cells: THP-1 cells differentiated with LPS and IFN-γ
# T1 sequence (Q99572 1-595): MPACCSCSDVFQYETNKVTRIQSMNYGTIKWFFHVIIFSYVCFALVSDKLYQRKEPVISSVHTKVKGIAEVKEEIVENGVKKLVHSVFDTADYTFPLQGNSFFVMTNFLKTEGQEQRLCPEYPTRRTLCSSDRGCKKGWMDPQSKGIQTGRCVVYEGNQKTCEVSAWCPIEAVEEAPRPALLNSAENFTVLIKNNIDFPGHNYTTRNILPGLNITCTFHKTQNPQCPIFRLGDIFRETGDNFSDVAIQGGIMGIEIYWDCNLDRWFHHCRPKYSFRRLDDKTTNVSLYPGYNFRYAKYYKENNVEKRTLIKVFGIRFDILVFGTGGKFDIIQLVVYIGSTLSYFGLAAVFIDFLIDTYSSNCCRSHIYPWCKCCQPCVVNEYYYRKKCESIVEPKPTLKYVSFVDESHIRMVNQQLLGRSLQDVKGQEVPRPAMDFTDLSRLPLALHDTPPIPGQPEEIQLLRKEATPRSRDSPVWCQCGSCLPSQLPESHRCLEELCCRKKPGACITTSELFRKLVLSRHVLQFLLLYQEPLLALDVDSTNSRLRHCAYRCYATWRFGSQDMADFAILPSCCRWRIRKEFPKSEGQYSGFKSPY
# How it was run: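 Differentiated THP-1 cells pretreated 30 min with compound, then stimulated with BzATP. Released IL-1β in supernatant measured by ELISA; background-adjusted percent inhibition fitted to four-parameter logistic for IC50.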
SMILES,half-life at 1 μM [1] [h],inhibition at 0.3 µM [2] [%],IC50 [2] [nM]
Cc1ccc(-n2ccc3c(NC(=O)CC45CC6CC(CC(C6)C4)C5)cccc3c2=O)cn1 [ID 715],0.42,> 76,4.02
O=C(Cc1ccc(Cl)c(C(F)(F)F)c1)Nc1cccc2c(=O)n(C3CCNC3)ccc12 (stereo not drawn) [ID 814],2.88,> 76,15.9
O=C(Cc1ccc(Cl)c(C(F)(F)F)c1)Nc1cccc2c(=O)n([C@H]3CCNC3)ccc12 [ID 825],4.27,> 76,16.4
O=C(Cc1ccc(Cl)c(C(F)(F)F)c1)Nc1cccc2c(=O)n(C3CNCC3O)ccc12 (stereo not drawn) [ID 826],1.85,> 76,2.44
O=C(CC1CCCCCC1)Nc1cccc2c(=O)n(C3CNCC3O)ccc12 (stereo not drawn) [ID 828],1.38,> 76,6.87
C[C@H](C(=O)Nc1cccc2c(=O)n(C3CNCC3O)ccc12)c1ccc(Cl)cc1 (stereo partly drawn) [ID 829],1.54,> 76,19.9
CC1(C)CC(CC(=O)Nc2cccc3c(=O)n([C@@H]4CCNC4)ccc23)CC(C)(C)C1 [ID 830],5.59,> 76,–
C[C@@H](C(=O)Nc1cccc2c(=O)n([C@H]3CCNC3)ccc12)c1ccc(Cl)c(Cl)c1 [ID 833],3.62,> 76,35
COc1ncccc1-n1ccc2c(NC(=O)Cc3ccc(Cl)c(C(F)(F)F)c3)cccc2c1=O [ID 847],0.22,> 76,9.37
Cc1ncccc1-n1ccc2c(NC(=O)Cc3ccc(C(F)(F)F)c(F)c3)cccc2c1=O [ID 855],0.73,> 76,11
Cc1ncccc1-n1ccc2c(NC(=O)Cc3ccc(Cl)c(C(F)(F)F)c3)cccc2c1=O [ID 861],0.49,> 76,4
O=C(Cc1ccc(C(F)(F)F)c(F)c1)Nc1cccc2c(=O)n(-c3cccnc3F)ccc12 [ID 871],1.08,> 76,8.72
O=C(Cc1ccc(Cl)cc1F)Nc1cccc2c(=O)n(C3CC3)ccc12 [ID 883],0.54,> 76,14.7
O=C(Cc1ccc(F)c(C(F)(F)F)c1)Nc1cccc2c(=O)n(C3CC3)ccc12 [ID 884],0.77,> 76,5.37
O=C(Cc1ccc(C(F)(F)F)c(F)c1)Nc1cccc2c(=O)n(C3CCC3)ccc12 [ID 892],–,> 76,22.1
O=C(Cc1ccc(F)c(Cl)c1)Nc1cccc2c(=O)n(C3CCC3)ccc12 [ID 893],–,> 76,48.3
C[C@H](C(=O)Nc1cccc2c(=O)n(C3CC3)ccc12)c1ccc(Cl)cc1 [ID 894],–,> 76,31.9
O=C(Cc1ccc(Cl)c(F)c1)Nc1cccc2c(=O)n(C3CCC3)ccc12 [ID 897],–,> 76,24.5
O=C(Cc1ccc(Cl)c(Cl)c1)Nc1cccc2c(=O)n(C3CCC3)ccc12 [ID 898],–,> 76,23.6
O=C(Cc1ccc(Cl)c(C(F)(F)F)c1)Nc1cccc2c(=O)n(C3CCC3)ccc12 [ID 899],–,> 76,6.19
Cc1ccc2c(=O)n([C@H]3CCNC3)ccc2c1NC(=O)Cc1ccc(C(F)(F)F)c(F)c1 [ID 900],–,> 76,40.2
Cc1ccc2c(=O)n([C@H]3CCNC3)ccc2c1NC(=O)Cc1ccc(F)c(C(F)(F)F)c1 [ID 901],–,> 76,11
